From US20090104122A1, “DETECTION OF MEMBRANE ANDROGEN RECEPTOR (mAR) AGENTS” (priority 2006, published 2009)
Numbered stars: 1 amine (or outer) side, 2 acyl side, 3 side chain; on linkers, the order of the positions; unused ones are H or OH. Bridge positions count the residues as written; N and C are the ends. Square brackets hold non-standard residues; d marks the D form. Peptide text beside a SMILES is read from it. ξ: configuration not given here. ξTrp(2-yl) = O=C(C(Cc1c([*:3])[nH]c2ccccc12)N[*:1])[*:2]; X1 = CC(O)(CO)CC(N[*:1])C(=O)[*:2]; ξAsp(3ξ-OH) = NC(C(=O)O)C(O)C(=O)O; Hyp = O=C(O)[CH]1C[CH](O)CN1

How the values were obtained:
DU145 cells [1] = assay: Quantitative measurement of apoptosis (APOPercentage Apoptosis Assay); assay type: cell-based, human; settings: for effect on apoptotic response of DU145 cells treated with Testo-BSA: 10^-6 M, agents blocking actin reorganization; for effect on testo-BSA induced apoptotic response: DU145 cells, signaling inhibitors
Source text: In order to analyze a possible cross-talk between actin cytoskeleton reorganization and apoptosis upon mABS activation, we studied the apoptotic response of DU145 cells in the presence of specific agents blocking actin reorganization. […] The FACS analysis fully supported these observations. […] This assumption is in line with previously published data, showing that actin reorganization is an important signaling step, regulating NFkB translocation and transcriptional regulation of TNFα induced anti-apoptotic response (Papakonstanti and Stounaras, Mol Biol Cell, 2004).
The APOPercentage Apoptosis Assay (Biocolor Ltd., Belfast, N. Ireland) was used to quantify apoptosis, according to manufacturer's instructions. This kit uses a dye that stains red the apoptotic cells undergoing the membrane “flip-flop” event when phosphatidylserine is translocated to the outer leaflet. Detection of apoptosis can be readily observed under inverted microscopy. For apoptosis quantitation, the amount of dye within the labeled cells can subsequently be released into solution and the concentration measured at a wavelength of 550 nm (reference filter 620 nm) using a color filter microplate […] (Dynatech MicroElisa reader Chantilly, Va.).

DU145 cells [2] = assay: Immunoblot analysis of Triton-soluble and insoluble actin (actin polymerization); assay type: cell-based, human; settings: DU145 cells activated with testosterone-BSA
Source text: There has been recognition that activation of mAR sites in LNCaP human prostate cancer cells results within minutes, in a significant rearrangement of the actin cytoskeleton, as indicated by the potent actin polymerization and microfilament reorganization (Kampa et al 2002). Using both, non-permeable testosterone analogs and specific inhibitors or antagonists of the intracellular androgen receptors (iAR), we provided strong evidence that in LNCaP cells this phenomenon was induced through the activation of the mARs. […] These quantitative results were fully supported by confocal laser scanning microscopic analysis of the actin cytoskeleton in testo-BSA treated DU145 cells. Indeed, a complete submembranous redistribution of the microfilamentous structures became evident within 10 minutes and persisted for at least 2 hours, as shown in FIGS. 3A-C.
The Triton-soluble proteins were precipitated with equal amounts of 6% perchloric acid (PCA). The Triton-insoluble fractions were precipitated with 1 ml of 3% PCA. Equal volumes of each fraction were subjected to SDS electrophoresis and proteins were transferred to a nitrocellulose membrane, using the LKB electrophoresis apparatus (LKB, Bromma, Sweden). […] Blots were developed using the enhanced chemiluminescence system, and the band intensities were quantitated by PC-based image analysis (Image Analysis, Inc., Ontario, Canada).

[3] = system: LNCaP-inoculated nude mice; assay: In vivo tumor growth in LNCaP-inoculated nude mice; settings: 8 mg/kg weight for one month, compared to control animals
FAK/PI-3K/Rac1 pathway = assay: FAK/PI-3K/Rac1 signaling after mAR activation; assay type: cell-based, human; settings: DU145 cells, FAK constitutively phosphorylated
Source text: Indeed, as shown in FIGS. 5A-B, FAK was constitutively phosphorylated in DU145 cells. […] These findings imply the existence of an alternative non-genomic signaling cascade regulating the rapid actin reorganization shown in FIGS. 2A-B.

RhoA = RhoA activation after mAR activation; assay type: cell-based, human; settings: 10^-7 M, DU145 cells
Source text: Looking for an alternative mechanism mediating the non-genomic testosterone signaling in DU145 cells we analyzed a possible rapid activation of Rho-GTPase's. Indeed, among the signaling effectors that regulate such processes of actin reorganization, the best understood are small GTPases of the Rho family. Classically, plasma membrane receptors activate specific guanine exchange factors (GEFs) often via phosphorylation, which leads to subsequent loading of Rho GTPases with GTP. Active Rho GTPases continue signal transmission towards Rho coiled-coiled kinase 1 (ROCK1) and/or p21-activated kinase 1 (Pak1). Activated […] phosphorylate and activate Lim-kinases 1 and 2 (Limk1 and Limk2) respectively. Limk1 and Limk2 are closely related proteins composed of two N-terminal Lim domains and a C-terminal kinase domain. The Lim domains are protein-binding motifs frequently found in cytosolic proteins that interact with the actin cytoskeleton. Eventually, Limk1 and Limk2 phosphorylate actin-depolymerizing proteins such as cofilin and actin-depolymerizing factor (ADF), which are inactivated and thus permit actin polymerization to occur. […] To further analyze the downstream effector of RhaA activation, DU145 cells, activated with testo-BSA were treated with the specific ROCK inhibitor Y27632 and actin redistribution was documented quantitatively using the G/Total-actin ratio.

LNCAP cells = assay: Induction of apoptosis in LNCaP cells; assay type: cell-based, human
Source text: (§1) This contact induced significant actin remodelling followed by a decrease in cell migration, adhesion and invasion. […] Activation of the pathway induced signaling and actin reorganization. The pathway is not activated in LNCAP cells. […] This effect was not observed with the anti-androgen flutamide.

DU-145 cells = assay: Cell migration, adhesion and invasion after mAR activation; assay type: cell-based, human
Source text: as §1

[4] = system: prostate-specific antigen (PSA); settings: within minutes; cited from earlier work

For `CC1NC(=O)C2CC(O)CN2C(=O)C2CSc3[nH]c4ccccc4c3CC(NC1=O)C(=O)NC(CC(C)(O)CO)C(=O)NC(C(C)C)C(=O)NC(C(O)C(=O)O)C(=O)N2` (stereo not drawn) [phallacidin] (cyclo([ξAsp(3ξ-OH)]C[Hyp]A[ξTrp(2-yl)][X1]V); thioether 2-5; configuration not given here), the “effect on apoptotic response of DU145 cells treated with Testo-BSA” value (DU145 cells [1]) was “clear inhibition”.
For `C=C1[C@@H](C)[C@H]2[C@H](Cc3ccccc3)NC(=O)[C@]23OC(=O)/C=C/[C@H](O)CCC[C@@H](C)C/C=C/[C@H]3[C@@H]1O` [cytochalasin B], the “effect on apoptotic response of DU145 cells treated with Testo-BSA” value (DU145 cells [1]) was “clear inhibition”.
With `C[C@@H](N)[C@H]1CC[C@H](C(=O)Nc2ccncc2)CC1` [Y27632] the “effect on testosterone-induced rapid actin polymerization” value (DU145 cells [2]) was “totally inhibited” and the “effect on testo-BSA induced apoptotic response” value (DU145 cells [1]) was “abrogating”.
In the case of `COC[C@H]1OC(=O)c2coc3c2[C@@]1(C)C1=C(C3=O)[C@@H]2CCC(=O)[C@@]2(C)C[C@H]1OC(C)=O` [wortmannin], the “effect on testosterone-induced rapid actin polymerization” value (DU145 cells [2]) is reported as “no effect” and the “effect on testo-BSA induced apoptotic response” value (DU145 cells [1]) is reported as “no effect”.
In the case of “testosterone 3-(O-carboxymethyl)oxime:BSA [testosterone-BSA]”, the reduction of tumor-size [3] is reported as 60%, the induction of apoptosis (DU145 cells [1]) is reported as “induced apoptosis” and the FAK phosphorylation (FAK/PI-3K/Rac1 pathway) is reported as “neither apparent additional FAK phosphorylation could be documented”. The “persistence of RhoA activation” value (RhoA) was “up to two hours”, the “time of maximum RhoA activation” value (RhoA) was 30 min and the “time to activation of RhoA” value (RhoA) was no more than 3 min. The induction of apoptosis (LNCAP cells) was “induced apoptosis”, the “cell migration, adhesion and invasion” value (DU-145 cells) was “decrease” and the “secretion of prostate-specific antigen (PSA)” value [4] was “increase”.
